Experimental data as given in US8716326B2, “Isoindolinone derivatives, preparation method thereof and a pharmaceutical composition comprising same” (Korea Research Institute of Chemical Technology, priority 2009, dated 2014).

Tested on: Runx2
Experiment: Runx2 activity, 6xOSE2-Luc luciferase reporter in transfected C2C12 cells
Type: cell-based, Mouse
Conditions: 24 hrs; for fold induction at 2.5 µM / fold induction at 5 µM / fold induction at 10 µM / fold induction at 20 µM: Mus musculus, read-out: luciferase activity relative to control set as 1
Experimental: Mouse premyoblast cell (C2C12 cell) was transfected using receptor vector 6xOSE2-Luc in order to investigate the activity of the amide compound of the present invention on Runx2.
Specifically, the receptor vector 6xOSE2-Luc was prepared by inserting an artificial promoter linked by six tandem copies of the OSE2 (osteoblast specific element-2) into vector pGL3 (Promega; Madison, Wis., U.S.A.), and then, cloned into the C2C12 cell to be transfected (Kim et al., Journal of Cellular Biochemistry, 91: 1239-1247, 2004). The OSE2 is the binding site of Runx2 in the promoter of osteocalcin which is a bone marker.
C2C12 cells (5,000 cells/well) were plated onto 96-well plates using 10% FBS (fetal bovine serum; Hyclone)-containing DMEM (Dulbecco's Modified Eagle's Medium), the medium was replaced with 5% FBS-containing DMEM after 24 hrs, and treated with each of the amide compounds obtained in Examples 1 to 94 at various concentrations of 2.5 μM, 5.0 μM, 10 μM, and 20 μM. As a control, dimethyl sulfoxide (DMSO) vehicle was applied to the cell in an amount same as that of the amide compound. After 24 hrs, the luciferase activity in the cell lysate was measured by using Dual-Luciferase Reporter Assay System (Promega). The luciferase activity of the amide compound of the present invention was calculated as a value relative to that observed for the control which was set as 1.

Structure (SMILES): COc1cc2c(c(Br)c1OC)CN(Cc1ccc(C(=O)Nc3ccccc3N)cc1)C2=O [Example 1, N-(2-aminophenyl)-4-((4-bromo-5,6-dimethoxy-1-oxoisoindolin-2-yl)methyl)benzamide]
- fold induction at 2.5 µM (2.5 μM): 21.4
- fold induction at 5 µM (5.0 μM): 26.2
- fold induction at 10 µM (10 μM): 19.9
- fold induction at 20 µM (20 μM): 15.8

Structure (SMILES): COc1cc2c(c(-c3ccccc3)c1OC)CN(Cc1ccc(C(=O)Nc3ccccc3N)cc1)C2=O [Example 2, N-(2-aminophenyl)-4-((5,6-dimethoxy-1-oxo-4-phenylisoindolin-2-yl)methyl)benzamide]
- fold induction at 2.5 µM (2.5 μM): 27.3
- fold induction at 5 µM (5.0 μM): 24.8
- fold induction at 10 µM (10 μM): 19.7
- fold induction at 20 µM (20 μM): 21.7

Structure (SMILES): COc1cc2c(c(-c3cc(C)cc(C)c3)c1OC)CN(Cc1ccc(C(=O)Nc3ccccc3N)cc1)C2=O [Example 3, N-(2-aminophenyl)-4-((5,6-dimethoxy-4-(3,5-dimethylphenyl)-1-oxoisoindolon-2-yl)methyl)benzamide]
- luciferase activity relative to control set as 1 (2.5 μM): 25.2 fold
- luciferase activity relative to control set as 1 (5.0 μM): 25.7 fold
- luciferase activity relative to control set as 1 (10 μM): 22.7 fold
- luciferase activity relative to control set as 1 (20 μM): 18.7 fold

Structure (SMILES): COc1cc2c(c(-c3cccnc3)c1OC)CN(Cc1ccc(C(=O)Nc3ccccc3N)cc1)C2=O [Example 4, N-(2-aminophenyl)-4-((5,6-dimethoxy-1-oxo-4-(pyridin-3-yl)isoindolin-2-yl)methyl)benzamide]
- fold induction at 2.5 µM (2.5 μM): 37
- fold induction at 5 µM (5.0 μM): 42.2
- fold induction at 10 µM (10 μM): 36.6
- fold induction at 20 µM (20 μM): 36.7

Structure (SMILES): COc1ccc(-c2c3c(cc(OC)c2OC)C(=O)N(Cc2ccc(C(=O)Nc4ccccc4N)cc2)C3)cc1 [Example 5, N-(2-aminophenyl)-4-((5,6-dimethoxy-4-(4-methoxyphenyl)-1-oxoisoindolin-2-yl)methyl)benzamide]
- fold induction at 2.5 µM (2.5 μM): 30.4
- fold induction at 5 µM (5.0 μM): 25.3
- fold induction at 10 µM (10 μM): 17.7
- fold induction at 20 µM (20 μM): 15.4

Structure (SMILES): COc1cc2c(c(-c3ccc(C(F)(F)F)cc3)c1OC)CN(Cc1ccc(C(=O)Nc3ccccc3N)cc1)C2=O [Example 6, N-(2-aminophenyl)-4-((4-(4-(trifluoromethyl)phenyl)-5,6-dimethoxy-1-oxoisoindolin-2-yl)methyl)benzamide]
- fold induction at 2.5 µM (2.5 μM): 14.2
- fold induction at 5 µM (5.0 μM): 18.3
- fold induction at 10 µM (10 μM): 17.2
- fold induction at 20 µM (20 μM): 9.3

Structure (SMILES): COc1ccc(-c2c3c(cc(OC)c2OC)C(=O)N(Cc2ccc(C(=O)Nc4ccccc4N)cc2)C3)cc1OC [Example 7, N-(2-aminophenyl)-4-((5,6-dimethoxy-4-(3,4-dimethoxyphenyl)-1-oxoisoindolin-2-yl)methyl)benzamide]
- fold induction at 2.5 µM (2.5 μM): 24.6
- fold induction at 5 µM (5.0 μM): 26.9
- fold induction at 10 µM (10 μM): 24.3
- fold induction at 20 µM (20 μM): 18.4

Structure (SMILES): Nc1ccccc1NC(=O)c1ccc(CN2Cc3c(Br)cccc3C2=O)cc1 [Example 9, N-(2-aminophenyl)-4-((4-bromo-1-oxoisoindolin-2-yl)methyl)benzamide]
- fold induction at 2.5 µM (2.5 μM): 12.4
- fold induction at 5 µM (5.0 μM): 11.3
- fold induction at 10 µM (10 μM): 9.7
- fold induction at 20 µM (20 μM): 9.4

Structure (SMILES): Nc1ccccc1NC(=O)c1ccc(CN2Cc3c(cccc3-c3cncnc3)C2=O)cc1 [Example 10, N-(2-aminophenyl)-4-((1-oxo-4-(pyrimidin-5-yl)isoindolin-2-yl)methyl)benzamide]
- fold induction at 2.5 µM (2.5 μM): 7.9
- fold induction at 5 µM (5.0 μM): 11.6
- fold induction at 10 µM (10 μM): 14.4
- fold induction at 20 µM (20 μM): 16.7

Structure (SMILES): Nc1ccccc1NC(=O)c1ccc(CN2Cc3c(cccc3-c3ccccc3)C2=O)cc1 [Example 11, N-(2-aminophenyl)-4-((1-oxo-4-phenylisoindolin-2-yl)methyl)benzamide]
- fold induction at 2.5 µM (2.5 μM): 8.3
- fold induction at 5 µM (5.0 μM): 12.3
- fold induction at 10 µM (10 μM): 15.6
- fold induction at 20 µM (20 μM): 16.8

Structure (SMILES): Cc1cc(C)cc(-c2cccc3c2CN(Cc2ccc(C(=O)Nc4ccccc4N)cc2)C3=O)c1 [Example 12, N-(2-aminophenyl)-4-((4-(3,5-dimethylphenyl)-1-oxoisoindolin-2-yl)methyl)benzamide]
- fold induction at 2.5 µM (2.5 μM): 5.5
- fold induction at 5 µM (5.0 μM): 9
- fold induction at 10 µM (10 μM): 12.2
- fold induction at 20 µM (20 μM): 10.4

Structure (SMILES): Nc1ccccc1NC(=O)c1ccc(CN2Cc3c(cccc3-c3ccc(C(F)(F)F)cc3)C2=O)cc1 [Example 13, N-(2-aminophenyl)-4-((4-(4-(trifluoromethyl)phenyl)-1-oxoisoindolin-2-yl)methyl)benzamide]
- fold induction at 2.5 µM (2.5 μM): 7.9
- fold induction at 5 µM (5.0 μM): 8
- fold induction at 10 µM (10 μM): 9.3
- fold induction at 20 µM (20 μM): 7.2

Structure (SMILES): Nc1ccccc1NC(=O)c1ccc(CN2Cc3c(cccc3-c3cccnc3)C2=O)cc1 [Example 14, N-(2-aminophenyl)-4-((1-oxo-4-(pyridin-3-yl)isoindolin-2-yl)methyl)benzamide]
- fold induction at 2.5 µM (2.5 μM): 12
- fold induction at 5 µM (5.0 μM): 15.7
- fold induction at 10 µM (10 μM): 15.4
- fold induction at 20 µM (20 μM): 16.9

Structure (SMILES): COc1ccc(-c2cccc3c2CN(Cc2ccc(C(=O)Nc4ccccc4N)cc2)C3=O)cc1 [Example 15, N-(2-aminophenyl)-4-((4-(4-methoxyphenyl)-1-oxoisoindolin-2-yl)methyl)benzamide]
- fold induction at 2.5 µM (2.5 μM): 7.4
- fold induction at 5 µM (5.0 μM): 10.4
- fold induction at 10 µM (10 μM): 12
- fold induction at 20 µM (20 μM): 14

Structure (SMILES): COc1ccc(-c2cccc3c2CN(Cc2ccc(C(=O)Nc4ccccc4N)cc2)C3=O)cc1OC [Example 16, N-(2-aminophenyl)-4-((4-(3,4-dimethoxyphenyl)-1-oxoisoindolin-2-yl)methyl)benzamide]
- fold induction at 2.5 µM (2.5 μM): 12.2
- fold induction at 5 µM (5.0 μM): 12.3
- fold induction at 10 µM (10 μM): 8.5
- fold induction at 20 µM (20 μM): 9.2

Structure (SMILES): Nc1ccccc1NC(=O)c1ccc(CN2Cc3c(cccc3-c3cc(F)cc(F)c3)C2=O)cc1 [Example 17, N-(2-aminophenyl)-4-((4-(3,5-difluorophenyl)-1-oxoisoindolin-2-yl)methyl)benzamide]
- fold induction at 2.5 µM (2.5 μM): 11.2
- fold induction at 5 µM (5.0 μM): 14.7
- fold induction at 10 µM (10 μM): 16.3
- fold induction at 20 µM (20 μM): 15.8

Structure (SMILES): Nc1cccc(-c2cccc3c2CN(Cc2ccc(C(=O)Nc4ccccc4N)cc2)C3=O)c1 [Example 18, N-(2-aminophenyl)-4-((4-(3-aminophenyl)-1-oxoisoindolin-2-yl)methyl)benzamide]
- fold induction at 2.5 µM (2.5 μM): 15.3
- fold induction at 5 µM (5.0 μM): 16.2
- fold induction at 10 µM (10 μM): 20.2
- fold induction at 20 µM (20 μM): 18.5

Structure (SMILES): Nc1ccccc1NC(=O)c1ccc(CN2Cc3c(cccc3-c3ccc4c(c3)OCO4)C2=O)cc1 [Example 19, N-(2-aminophenyl)-4-((4-(benzo[d][1,3]dioxol-6-yl)-1-oxoisoindolin-2-yl)methyl)benzamide]
- fold induction at 2.5 µM (2.5 μM): 10.8
- fold induction at 5 µM (5.0 μM): 9.9
- fold induction at 10 µM (10 μM): 11.7
- fold induction at 20 µM (20 μM): 14

Structure (SMILES): N#Cc1ccc(-c2cccc3c2CN(Cc2ccc(C(=O)Nc4ccccc4N)cc2)C3=O)cc1 [Example 20, N-(2-aminophenyl)-4-[4-(4-cyanophenyl)-1-oxo-2,3-dihydro-1H-isoindol-2-yl]methylbenzamide]
- fold induction at 2.5 µM (2.5 μM): 16.2
- fold induction at 5 µM (5.0 μM): 19.4
- fold induction at 10 µM (10 μM): 19.3
- fold induction at 20 µM (20 μM): 16.8

Structure (SMILES): Nc1ccccc1NC(=O)c1ccc(CN2Cc3c(cccc3-c3ccc4ccccc4c3)C2=O)cc1 [Example 21, N-(2-aminophenyl)-4-((4-(naphthalen-2-yl)-1-oxoisoindolin-2-yl)methyl)benzamide]
- fold induction at 2.5 µM (2.5 μM): 6.4
- fold induction at 5 µM (5.0 μM): 8.7
- fold induction at 10 µM (10 μM): 11.6
- fold induction at 20 µM (20 μM): 11.7

Structure (SMILES): COc1ccc(-c2cccc3c2CN(Cc2ccc(C(=O)Nc4ccccc4N)cc2)C3=O)cn1 [Example 22, N-(2-aminophenyl)-4-((4-(6-methoxypyridin-3-yl)-1-oxoisoindolin-2-yl)methyl)benzamide]
- fold induction at 2.5 µM (2.5 μM): 12.4
- fold induction at 5 µM (5.0 μM): 9.5
- fold induction at 10 µM (10 μM): 10.2
- fold induction at 20 µM (20 μM): 10.3

Structure (SMILES): CC(=O)Nc1cccc(-c2cccc3c2CN(Cc2ccc(C(=O)Nc4ccccc4N)cc2)C3=O)c1 [Example 23, N-(2-aminophenyl)-4-[4-(3-acetamidophenyl)-1-oxo-2,3-dihydro-1H-isoindol-2-yl]methylbenzamide]
- fold induction at 2.5 µM (2.5 μM): 3.9
- fold induction at 5 µM (5.0 μM): 5.1
- fold induction at 10 µM (10 μM): 18.1
- fold induction at 20 µM (20 μM): 33.2

Structure (SMILES): COc1ccc(-c2cccc3c2CN(Cc2ccc(C(=O)Nc4ccccc4N)cc2)C3=O)cc1F [Example 24, N-(2-aminophenyl)-4-((4-(3-fluoro-4-methoxyphenyl)-1-oxoisoindolin-2-yl)methyl)benzamide]
- fold induction at 2.5 µM (2.5 μM): 11.8
- fold induction at 5 µM (5.0 μM): 17.3
- fold induction at 10 µM (10 μM): 19.6
- fold induction at 20 µM (20 μM): 21.2

Structure (SMILES): Nc1ccccc1NC(=O)c1ccc(CN2Cc3c(cccc3-c3ccc(-c4ccccc4)cc3)C2=O)cc1 [Example 25, N-(2-aminophenyl)-4-[1-oxo-4-(4-phenylphenyl)-2,3-dihydro-1H-isoindol-2-yl]methylbenzamide]
- fold induction at 2.5 µM (2.5 μM): 6.8
- fold induction at 5 µM (5.0 μM): 11.3
- fold induction at 10 µM (10 μM): 17.9
- fold induction at 20 µM (20 μM): 19.7
